Reference: ChEMBL document CHEMBL3046602, “Chiral 1,5-disubstituted 1,3,5-hexahydrotriazine-2-N-nitroimine analogues as novel potent neonicotinoids: Synthesis, insecticidal evaluation and molecular docking studies” (2011)

What was measured:
Assay type in all cases: functional
[1] = tested on: Aphis medicaginis; assay: Insecticidal activity against Aphis medicaginis assessed as insect mortality at 10 mg/L measured after 72 hr post compound treatment
[2] = tested on: Aphis medicaginis; assay: Insecticidal activity against Aphis medicaginis assessed as insect mortality at 100 mg/L measured after 72 hr post compound treatment
[3] = tested on: Aphis medicaginis; assay: Insecticidal activity against Aphis medicaginis assessed as insect mortality at 500 mg/L measured after 72 hr post compound treatment

Molecule `CCOC(=O)[C@@H](c1ccc(Cl)cc1)N1CN/C(=N\[N+](=O)[O-])N(Cc2cnc(Cl)s2)C1` has a mortality at 10 µg/mL [1] of no less than 90%, a mortality at 100 µg/mL [2] of 100% and a mortality at 500 µg/mL [3] of 100%.

For `CCOC(=O)[C@H](Cc1ccccc1)N1CN/C(=N\[N+](=O)[O-])N(Cc2cnc(Cl)s2)C1`, the mortality at 100 µg/mL [2] was no less than 60% and the mortality at 500 µg/mL [3] was no less than 70%.

`CCOC(=O)[C@H](C(C)C)N1CN/C(=N\[N+](=O)[O-])N(Cc2cnc(Cl)s2)C1` gave a mortality at 10 µg/mL [1] of no less than 50%, a mortality at 100 µg/mL [2] of no less than 60% and a mortality at 500 µg/mL [3] of no less than 80%.

With `CCOC(=O)[C@H](CC(C)C)N1CN/C(=N\[N+](=O)[O-])N(Cc2cnc(Cl)s2)C1` the mortality at 10 µg/mL [1] was no less than 80%, the mortality at 100 µg/mL [2] was 100% and the mortality at 500 µg/mL [3] was 100%.

Molecule `CCOC(=O)[C@H]([C@@H](C)CC)N1CN/C(=N\[N+](=O)[O-])N(Cc2cnc(Cl)s2)C1` has a mortality at 10 µg/mL [1] of no less than 50%, a mortality at 100 µg/mL [2] of no less than 60% and a mortality at 500 µg/mL [3] of no less than 80%.

`CCOC(=O)CCCN1CN/C(=N\[N+](=O)[O-])N(Cc2ccc(Cl)nc2)C1` gave a mortality at 10 µg/mL [1] of no less than 80%, a mortality at 100 µg/mL [2] of 100% and a mortality at 500 µg/mL [3] of 100%.

In the case of `CCOC(=O)[C@H](Cc1ccccc1)N1CN/C(=N\[N+](=O)[O-])N(Cc2ccc(Cl)nc2)C1`, the mortality at 10 µg/mL [1] is reported as no less than 50%, the mortality at 100 µg/mL [2] is reported as no less than 60% and the mortality at 500 µg/mL [3] is reported as no less than 70%.

Work on `CCOC(=O)CC(CC(=O)OCC)N1CN/C(=N\[N+](=O)[O-])N(Cc2cnc(Cl)s2)C1` yielded a mortality at 10 µg/mL [1] of no less than 60%, a mortality at 100 µg/mL [2] of no less than 70% and a mortality at 500 µg/mL [3] of no less than 90%.

Molecule `O=[N+]([O-])/N=C1\NCCN1Cc1ccc(Cl)nc1` [IMIDACLOPRID] has a mortality at 10 µg/mL [1] of 100%, a mortality at 100 µg/mL [2] of 100% and a mortality at 500 µg/mL [3] of 100%.

`CCOC(=O)[C@H]([C@@H](C)CC)N1CN/C(=N\[N+](=O)[O-])N(Cc2ccc(Cl)nc2)C1` was tested, and the mortality at 10 µg/mL [1] was no less than 60%, the mortality at 100 µg/mL [2] was no less than 80% and the mortality at 500 µg/mL [3] was no less than 80%.

In the case of `CCOC(=O)[C@H](C)N1CN/C(=N\[N+](=O)[O-])N(Cc2ccc(Cl)nc2)C1`, the mortality at 10 µg/mL [1] is reported as no less than 50%, the mortality at 100 µg/mL [2] is reported as no less than 60% and the mortality at 500 µg/mL [3] is reported as no less than 70%.

In the case of `CCOC(=O)CCCN1CN/C(=N\[N+](=O)[O-])N(Cc2cnc(Cl)s2)C1`, the mortality at 10 µg/mL [1] is reported as no less than 80%, the mortality at 100 µg/mL [2] is reported as 100% and the mortality at 500 µg/mL [3] is reported as 100%.

`CCOC(=O)CC(CC(=O)OCC)N1CN/C(=N\[N+](=O)[O-])N(Cc2ccc(Cl)nc2)C1` gave a mortality at 10 µg/mL [1] of no less than 60%, a mortality at 100 µg/mL [2] of no less than 70% and a mortality at 500 µg/mL [3] of 100%.

With `CCOC(=O)CN1CN/C(=N\[N+](=O)[O-])N(Cc2ccc(Cl)nc2)C1` the mortality at 10 µg/mL [1] was no less than 60%, the mortality at 100 µg/mL [2] was no less than 70% and the mortality at 500 µg/mL [3] was no less than 80%.

In the case of `CCOC(=O)CN1CN/C(=N\[N+](=O)[O-])N(Cc2cnc(Cl)s2)C1`, the mortality at 10 µg/mL [1] is reported as no less than 60%, the mortality at 100 µg/mL [2] is reported as no less than 70% and the mortality at 500 µg/mL [3] is reported as no less than 80%.

In the case of `CCOC(=O)CCN1CN/C(=N\[N+](=O)[O-])N(Cc2ccc(Cl)nc2)C1`, the mortality at 10 µg/mL [1] is reported as no less than 70%, the mortality at 100 µg/mL [2] is reported as no less than 80% and the mortality at 500 µg/mL [3] is reported as 100%.

Molecule `CCOC(=O)C[C@@H](C(=O)OCC)N1CN/C(=N\[N+](=O)[O-])N(Cc2cnc(Cl)s2)C1` has a mortality at 10 µg/mL [1] of no less than 70%, a mortality at 100 µg/mL [2] of no less than 80% and a mortality at 500 µg/mL [3] of no less than 90%.

`CCOC(=O)[C@H](CCSC)N1CN/C(=N\[N+](=O)[O-])N(Cc2ccc(Cl)nc2)C1` gave a mortality at 100 µg/mL [2] of no less than 60% and a mortality at 500 µg/mL [3] of no less than 70%.

`CCOC(=O)CCN1CN/C(=N\[N+](=O)[O-])N(Cc2cnc(Cl)s2)C1` was tested, and the mortality at 10 µg/mL [1] was no less than 60%, the mortality at 100 µg/mL [2] was no less than 70% and the mortality at 500 µg/mL [3] was 100%.

With `CCOC(=O)[C@@H](c1ccc(Cl)cc1)N1CN/C(=N\[N+](=O)[O-])N(Cc2ccc(Cl)nc2)C1` the mortality at 10 µg/mL [1] was no less than 50%, the mortality at 100 µg/mL [2] was no less than 60% and the mortality at 500 µg/mL [3] was no less than 70%.

With `CCOC(=O)[C@H](CC(C)C)N1CN/C(=N\[N+](=O)[O-])N(Cc2ccc(Cl)nc2)C1` the mortality at 10 µg/mL [1] was no less than 70%, the mortality at 100 µg/mL [2] was no less than 80% and the mortality at 500 µg/mL [3] was 100%.

With `CCOC(=O)C[C@@H](C(=O)OCC)N1CN/C(=N\[N+](=O)[O-])N(Cc2ccc(Cl)nc2)C1` the mortality at 10 µg/mL [1] was no less than 60%, the mortality at 100 µg/mL [2] was no less than 70% and the mortality at 500 µg/mL [3] was no less than 90%.

For `CCOC(=O)[C@H](CCSC)N1CN/C(=N\[N+](=O)[O-])N(Cc2cnc(Cl)s2)C1`, the mortality at 10 µg/mL [1] was no less than 50%, the mortality at 100 µg/mL [2] was no less than 60% and the mortality at 500 µg/mL [3] was no less than 90%.

Molecule `CN1COCN(Cc2cnc(Cl)s2)/C1=N\[N+](=O)[O-]` [THIAMETHOXAM] has a mortality at 10 µg/mL [1] of 100%, a mortality at 100 µg/mL [2] of 100% and a mortality at 500 µg/mL [3] of 100%.

Work on `CCOC(=O)[C@H](C(C)C)N1CN/C(=N\[N+](=O)[O-])N(Cc2ccc(Cl)nc2)C1` yielded a mortality at 10 µg/mL [1] of no less than 60%, a mortality at 100 µg/mL [2] of no less than 70% and a mortality at 500 µg/mL [3] of no less than 80%.

In the case of `CCOC(=O)[C@H](C)N1CN/C(=N\[N+](=O)[O-])N(Cc2cnc(Cl)s2)C1`, the mortality at 10 µg/mL [1] is reported as no less than 60%, the mortality at 100 µg/mL [2] is reported as no less than 60% and the mortality at 500 µg/mL [3] is reported as no less than 80%.
